The source of these data is US20250109139A1, “TRICYCLIC COMPOUND, AND PREPARATION METHOD THEREFOR AND USE THEREOF” (SHANGHAITECH UNIVERSITY, priority 2022, published 2025).

Test [1] deals with T1, dopamine D2 receptors (Homo sapiens (Human), UniProt P14416). As to the kind of experiment: Dopamine D2 receptor radioligand competition binding assay ([3H]-Methylspiperone). To be noted: [3H]-Methylspiperone 0.3 to 0.5 nM, 293T membranes. Here is the method: The affinity of the compounds of the present disclosure for dopamine D2 receptors was determined by a radioligand competition binding assay.
T1 sequence (P14416 whole entry): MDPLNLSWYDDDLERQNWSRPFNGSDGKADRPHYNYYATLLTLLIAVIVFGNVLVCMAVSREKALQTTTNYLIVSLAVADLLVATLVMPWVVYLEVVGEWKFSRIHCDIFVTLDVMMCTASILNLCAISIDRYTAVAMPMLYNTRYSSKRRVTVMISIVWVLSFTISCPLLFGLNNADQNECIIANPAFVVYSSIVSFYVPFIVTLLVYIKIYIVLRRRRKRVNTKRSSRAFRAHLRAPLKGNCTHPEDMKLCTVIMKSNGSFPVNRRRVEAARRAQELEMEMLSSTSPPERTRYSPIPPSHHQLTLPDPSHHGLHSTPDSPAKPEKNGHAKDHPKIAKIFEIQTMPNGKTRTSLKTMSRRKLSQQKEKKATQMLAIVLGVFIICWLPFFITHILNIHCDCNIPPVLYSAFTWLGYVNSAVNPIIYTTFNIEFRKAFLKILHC
In the first step, a cell membrane component containing specific dopamine D2 receptors was prepared. A 10 cm culture dish was used for transfection with […] of dopamine D2 receptors and 40 μL of polyethylenimine (PEI hereafter). […] A vacuum pump was used to suck off the culture medium, 3 mL of lysis buffer was added to each culture dish, and the cells were placed in a 4° C. cold room for 10 minutes. After the cells were detached, the cells were transferred to a 15 mL centrifuge tube and centrifuged at 1500 rpm for 5 minutes at 4° C., and the supernatant was discarded. The cell pellet was transferred to a tissue homogenizer, and 3 mL of lysis buffer was added and fully ground until the cells were broken. Then, cell suspension was equally aliquoted into several EP tubes, centrifuged at 12000 rpm for 5 minutes at 4° C., and the supernatant was discarded. The precipitate was the cell membrane component containing the dopamine D2 receptors.
First, a standard binding buffer was added to the cell membrane component containing the dopamine D2 receptors, and the cell membrane was disrupted and resuspended with an electric tissue homogenizer. 30 μL of membrane protein suspension was added to each well of a 96-well plate. Then, 30 μL of different drugs were added to the 96-well plate sequentially from bottom to top to ensure that the final drug concentrations were 10^−5 M, 10^−6 M, 10^−7 M, 10^−8 M, 10^−9 M, and 0 M, with two replicates per treatment. Next, 30 μL of [3H]-Methylspiperone was added to each well of the 96-well plate. The plate was incubated at room temperature in the dark for 2 hours. Detection was conducted. The machine readout value reflected the amount of [3H]-Methylspiperone bound on the membrane, and after further data processing, the affinity Ki values of different compounds for the dopamine D2 receptors were obtained.
(Loss of bound radioactivity is the signal in a displacement assay; it reports binding, not function.)

Test [2] deals with T1, dopamine D2 receptors. As to the kind of experiment: Dopamine D2 receptor β-arrestin2 BRET (recruitment). The format is cell-based. To be noted: for Emax: relative to endogenous ligand dopamine, read-out: β-arrestin2 BRET Emax % ± SEM. Here is the method:
(§1) To examine the downstream G-protein signaling pathway mediated by dopamine D2 receptors, on the first day, a 6 cm culture dish was used for transfection with 1 μg of dopamine D2 receptors, 1 μg of Gαi1 containing C-terminal seaweed luciferase (Gαi1-Rluc), 1 μg of Gβ3, 1 μg of Gγ9 containing C-terminal green fluorescent protein (Gγ9-GFP) mixed with 16 μL of PEI. At the same time, in order to examine the downstream β-arrestin2 signaling pathway mediated by dopamine D2 receptors, on the first day, a 6 cm culture dish was used for transfection with […] of dopamine D2 receptors containing C-terminal seaweed luciferase (D2-Rluc), […] of G protein-coupled receptor kinase 2 (GRK2), […] of β-arrestin2 containing N-terminal green fluorescent protein (GFP2-ARRB2) mixed with 14 μL of PEI. The next day, the confluent cells of a 6 cm culture dish were digested and reseeded into a 96-well plate with 100 μL of culture medium added to each well. On the third day, the drugs were added for test. The 96-well plate was taken out from the cell incubator to decant the culture medium, 40 μL of the substrate coelenterazine 400a (final concentration of 5 μM) was added to each well, and then 20 μL of different drugs were added sequentially from left to right to ensure that the final concentration of the drug decreased gradually from bottom to top, with two replicates per treatment. Finally, the prepared samples were loaded on machine for test. The machine readout value reflected the recruitment of β-arrestin2 to the membrane or the dissociation of G protein trimer. The former indicated the degree of activation of the β-arrestin2 signaling pathway downstream of the dopamine D2 receptors, and the latter indicated the degree of activation of the G protein signaling pathway downstream of the dopamine D2 receptors.
A general note: Bioluminescence resonance energy transfer reports proximity on the nanometre scale.

The target in test [3] is T1, dopamine D2 receptors. Put plainly: Dopamine D2 receptor Gαi1 BRET (G protein trimer dissociation). The format is cell-based. As to conditions: for Emax: relative to endogenous ligand dopamine, read-out: Gαi1 BRET Emax % ± SEM. Here is the method:
as §1

The mark [4] stands for this setting: unit printed only in Cariprazine cell, read-out: β-arrestin2 BRET EC50.
Where [5] appears, read: read-out: Gαi1 BRET pEC50 ± SEM (converted).
The mark [6] stands for this setting: unit printed only in Cariprazine cell, read-out: Gαi1 BRET EC50.
Setting [7] is: read-out: Affinity pKi ± SEM (converted).
Setting [8] is: read-out: β-arrestin2 BRET pEC50 ± SEM (converted).

Like-named read-outs stand apart in the source and are kept apart here.

A word on the Emax: it is the greatest response seen or fitted, relative to the assay's reference. As to `CC(C)Oc1cccc2c3c(oc12)CN(CC[C@H]1CC[C@H](NC(=O)N(C)C)CC1)CC3` [I-A19, 3-(trans-4-(2-(8-isopropoxy-3,4-dihydrobenzofuro[2,3-c]pyridin-2(1H)-yl)ethyl)cyclohexyl)-1,1-dimethylurea], the “Affinity pKi ± SEM” value at dopamine D2 receptors [1] is “(6.03 ± 0.07)”. Also, the Ki at dopamine D2 receptors [1] (read-out: Affinity Ki) worked out at 930 nM. The Emax is 21% at dopamine D2 receptors [2] and 40% at dopamine D2 receptors [3]. Further, the EC50 on dopamine D2 receptors [2] (setting [4]) is 8.36 nM; at dopamine D2 receptors [3] (setting [5]), 10.7 nM; on dopamine D2 receptors [3] (setting [6]), 10.6 nM.
Regarding `COc1cccc2c3c(oc12)CN(CCCOc1ccc2ccc(=O)[nH]c2c1)CC3` [I-A8, 7-(3-(8-methoxy-3,4-dihydrobenzofuro[2,3-c]pyridin-2(1H)-yl)propoxy)quinolin-2(1H)-one], the “Affinity pKi ± SEM” value on dopamine D2 receptors [1] was “(6.82 ± 0.16)”. The Ki on dopamine D2 receptors [1] (read-out: Affinity Ki) came to 149 nM. Further, the results for the Emax at dopamine D2 receptors [2] and at dopamine D2 receptors [3] were 103% and 68%, respectively. For the same compound, the EC50 at dopamine D2 receptors [2] (setting [4]) was determined as 52.6 nM; on dopamine D2 receptors [3] (setting [6]), 0.15 nM.
Regarding `COc1cccc2c3c([nH]c12)CN(CCCCOc1ccc2ccc(=O)[nH]c2c1)CC3` [I-B1, 7-(4-(8-methoxy-1,3,4,9-tetrahydro-2H-pyrido[3,4-b]indol-2-yl)butoxy)quinolin-2(1H)-one], the Ki at dopamine D2 receptors [1] (read-out: Affinity Ki) is 362 nM; on dopamine D2 receptors [1] (setting [7]), 83.2 nM. Also, the EC50 at dopamine D2 receptors [2] (setting [8]) was 12 nM; on dopamine D2 receptors [2] (setting [4]), 13.1 nM; at dopamine D2 receptors [3] (setting [5]), 102 nM; at dopamine D2 receptors [3] (setting [6]), 233 nM. For the same compound, the Emax at dopamine D2 receptors [2] is 50%; at dopamine D2 receptors [3], 22%.
With `COc1cccc2c3c(oc12)CN(CC[C@H]1CC[C@H](NS(C)(=O)=O)CC1)CC3` [I-A13, N-(trans-4-(2-(8-methoxy-3,4-dihydrobenzofuro[2,3-c]pyridin-2(1H)-yl)ethyl)cyclohexyl)methanesulfonamide], the figures for the Ki at dopamine D2 receptors [1] (read-out: Affinity Ki) and at dopamine D2 receptors [1] (setting [7]) were 1720 nM and 1580 nM, respectively. Moreover, the EC50 is 0.832 nM at dopamine D2 receptors [2] (setting [8]), 4.61 nM on dopamine D2 receptors [2] (setting [4]), 38.9 nM at dopamine D2 receptors [3] (setting [5]) and 46.6 nM at dopamine D2 receptors [3] (setting [6]). For the same compound, the Emax at dopamine D2 receptors [2] worked out at 81%; at dopamine D2 receptors [3], 53%.
In the case of `CCOc1cccc2c3c([nH]c12)CN(CCCOc1ccc2ccc(=O)[nH]c2c1)CC3` [I-B4, 7-(3-(8-ethoxy-1,3,4,9-tetrahydro-2H-pyrido[3,4-b]indol-2-yl)propoxy)quinolin-2(1H)-one], the “Affinity pKi ± SEM” value at dopamine D2 receptors [1] is “(6.13 ± 0.26)”. The Ki at dopamine D2 receptors [1] (read-out: Affinity Ki) was determined as 728 nM.
For `COc1cccc2c1cc1n2CCN(C/C=C/COc2ccc3ccc(=O)[nH]c3c2)C1` [I-C5, (E)-7-((4-(9-methoxy-3,4-dihydropyrazino[1,2-a]indol-2(1H)-yl)but-2-en-1-yl)oxy)quinolin-2(1H)-one], the “Affinity pKi ± SEM” value on dopamine D2 receptors [1] is reported as “(6.36 ± 0.28)”. Besides, on dopamine D2 receptors [1] (read-out: Affinity Ki), the Ki was 438 nM. Also, the Emax was 127% at dopamine D2 receptors [2] and 64% on dopamine D2 receptors [3]. The figures for the EC50 on dopamine D2 receptors [2] (setting [4]), at dopamine D2 receptors [3] (setting [5]) and at dopamine D2 receptors [3] (setting [6]) were 20.8 nM, 97.7 nM and 96.5 nM, respectively.
As to `COc1cccc2c3c([nH]c12)CN(CCCOc1ccc2ccc(=O)[nH]c2c1)CC3` [I-B3, 7-(3-(8-methoxy-1,3,4,9-tetrahydro-2H-pyrido[3,4-b]indol-2-yl)propoxy)quinolin-2(1H)-one], the Ki on dopamine D2 receptors [1] (read-out: Affinity Ki) is 282 nM; at dopamine D2 receptors [1] (setting [7]), 288 nM. Besides, the Emax worked out at 90% on dopamine D2 receptors [2] and 41% at dopamine D2 receptors [3]. The EC50 was 0.47 nM on dopamine D2 receptors [2] (setting [4]), 13.2 nM at dopamine D2 receptors [3] (setting [5]) and 13 nM on dopamine D2 receptors [3] (setting [6]).
With `COc1cccc2c3c(oc12)CN(C/C=C/COc1ccc2ccc(=O)[nH]c2c1)CC3` [I-A10, (E)-7-((4-(8-methoxy-3,4-dihydrobenzofuro[2,3-c]pyridin-2(1H)-yl)but-2-en-1-yl)oxy)quinolin-2(1H)-one], the “Affinity pKi ± SEM” value on dopamine D2 receptors [1] is reported as “(6.85 ± 0.19)”. The Ki on dopamine D2 receptors [1] (read-out: Affinity Ki) was 139 nM. In addition, the Emax worked out at 107% on dopamine D2 receptors [2] and 27% at dopamine D2 receptors [3]. Besides, the EC50 was 4.61 nM at dopamine D2 receptors [2] (setting [4]) and 61.3 nM at dopamine D2 receptors [3] (setting [6]). Further, the “Gαi1 BRET pEC50 ± SEM” value on dopamine D2 receptors [3] is listed as “(7.21 ± 0.12)”.
With `COc1cccc2c3c([nH]c12)CN(CCC1CC(NC(=O)N(C)C)C1)CC3` (stereo not drawn) [I-B10, 3-(3-(2-(8-methoxy-1,3,4,9-tetrahydro-2H-pyrido[3,4-b]indol-2-yl)ethyl)cyclobutyl)-1,1-dimethylurea], the “Affinity pKi ± SEM” value on dopamine D2 receptors [1] was “(7.63 ± 0.57)”. At dopamine D2 receptors [1] (read-out: Affinity Ki), the Ki stood at 23.2 nM.
